Measurements reported in US11952387B2, “Bicyclic heteroaromatic ring derivative” (priority 2018, dated 2024).

Tested on: HRV14
Assay: Inhibitory activity against human rhinovirus infection and replication (quantitative real-time PCR)
Type: cell-based
Settings: Human rhinovirus sp., MRC5; 100 nmol/L test compound; MRC-5 cells infected with HRV14 at MOI=0.2; 48 hours; viral load normalized to 18s rRNA; read-out: Percent Inhibition
Experimental: Evaluation of inhibitory activity against human rhinovirus infection and replication (by quantitative real-time PCR)
A required amount of a test compound was weighed off and dissolved in dimethyl sulfoxide (DMSO) to yield a 10 mmol/L stock solution. Next, the stock solution was diluted with a medium for viral infection (minimum essential medium (MEM) supplemented with 2% fetal bovine serum, 5% Tryptose phosphate broth, and 30 mmol/L MgCl2) to prepare 100 nmol/L and 1000 nmol/L of test compound solutions. MRC-5 (human fetal lung fibroblast: ATCC) was suspended at a density of 30000 cells/mL in cell culture medium (MEM supplemented with 10% fetal bovine serum), and 625 μL of the suspension per well was seeded into a 24-well cell culture plate and cultured at 37° C. in 5% CO2. After 72 hours, it was confirmed that the plate had become 80% confluent. The plate was washed with 625 μL of phosphate-buffered physiological saline (Ca/Mg-free; PBS-) once, and 625 μL of the test compound solution prepared just before use was immediately added to the plate. After 30 minutes, the medium was removed followed by addition of 187.5 μL of the test compound solution that had been prepared such that the cells were infected with HRV14 (ATCC) at multiplicity of infection (MOI)=0.2. The cells were then cultured at 35° C. in 5% CO2. After additional 2 hours, 625 μL of the test compound solution prepared just before use was added, and the cells were cultured at 35° C. in 5% CO2. After 48 hours, the cells were washed with 625 μL of PBS- once, and total RNA was extracted from the cells using RNeasy (R) plus kit (Qiagen) according to the manufacturer's instruction. Subsequently, cDNA was synthesized using High-Capacity cDNA Reverse Transcription Kit (Thermo Fisher Scientific). Finally, quantitative real-time PCR was performed in 7500 Fast Real-time PCR system (Life technologies) to measure HRV14 and 18s rRNA. The measurement protocol consisted of the initial denaturation phase at 95° C. for 20 seconds followed by 40 cycles of the denaturation step at 95° C. for 3 seconds and the annealing/elongation step at 60° C. for 30 seconds. The primers used were HRV14 forward primer set forth in SEQ ID NO: 1 and HRV14 reverse primer set forth in SEQ ID NO: 2, and the probe is set forth in SEQ ID NO: 3.
18s rRNA was measured using Eukaryotic 18S rRNA Endogenous Control (Applied Biosystems). According to Equation 1, 18s ribosomal RNA was used as an internal standard to normalize the viral load of HRV14: Viral load of HRV14=The amount of HRV14 in virus-infected cells/the amount of 18s rRNA in virus-infected cells Equation 1
Inhibitory activity of test compounds was calculated as a percent inhibition (%) according to Equation 2: Percent inhibition (%)=[the viral load of HRV in virus-infected cells in the absence of the test compound −the viral load of HRV in virus-infected cells in the presence of the test compound]/[the viral load of HRV in virus-infected cells in the absence of the test compound]×100 Equation 2
The results of using 100 nmol/L test compound solutions were shown in the tables below according to Examples. In the tables, percent inhibition was expressed as follows: percent inhibition >80%: +++, 80%≥percent inhibition >50%: ++, and 50%≥percent inhibition:+.

| SMILES | inhibition at 0.1 µM [%] |
| --- | --- |
| COc1ccc(-c2c(C)nc3sc(C(C)C)nn23)cc1S(=O)(=O)N[C@H]1CC[C@@H](O)CC1 [Example 1-6] | > 80 |
| Cc1nc2sc(C(C)(C)O)nn2c1-c1ccc(C#N)c(S(=O)(=O)N[C@H]2CC[C@H](O)CC2)c1 [Example 2-6] | ≤ 50 |
| COc1ccc(-c2c(C)nc3sc(C(C)(C)O)nn23)cc1S(=O)(=O)[C@H]1CC[C@](C)(O)CC1 [Example 15-2] | 50 to 80 |
| Cc1nc2sc(C(C)(C)O)nn2c1-c1cc2c(c(S(=O)(=O)CC(C)(C)O)c1)OCC2 [Example 2-83] | 50 to 80 |
| COc1ccc(-c2c(C)nc3sc(C(C)(C)C#N)nn23)cc1S(=O)(=O)N[C@H]1CC[C@@H](O)CC1 [Example 1-20] | > 80 |
| COc1ccc(-c2c(C)nc3sc(C(C)(C)O)nn23)cc1S(=O)(=O)CC(C)(C)O [Example 1-38] | > 80 |
| COc1ccc(-c2c(C)nc3sc(C(C)(C)O)nn23)cc1S(=O)(=O)[C@]1(C2CC2)C[C@H](O)C1 [Example 2-72] | ≤ 50 |
| COc1ccc(-c2c(C)nc3sc(C(C)(C)O)nn23)cc1S(=O)(=O)Cc1ccc(F)cc1 [Example 2-92] | 50 to 80 |
| COc1ccc(-c2c(C)nc3sc(C(C)(C)O)nn23)cc1S(=O)(=O)NCC1COC1 [Example 21-4] | 50 to 80 |
| COc1ccc(-c2c(C)nc3sc(C(C)(C)O)cn23)cc1S(=O)(=O)Nc1ccc(F)cc1 [Example 21-19] | 50 to 80 |
| Cc1nc2sc(C(C)(C)O)nn2c1-c1ccc(C(F)(F)F)c(S(=O)(=O)C2CC(F)(F)C2)c1 [Example 2-44] | > 80 |
| Cc1nc2sc(C(C)(C)O)nn2c1-c1ccc(C(F)(F)F)c(S(=O)(=O)N[C@H]2CC[C@@H](O)CC2)c1 [Example 1-26] | > 80 |
| CC(=O)N1CC(S(=O)(=O)c2cc(-c3c(C)nc4sc(C(C)(C)O)nn34)ccc2C(F)(F)F)C1 [Example 10-1] | > 80 |
| COc1ccc(-c2c(C)nc3sc(C(C)(C)C(=O)O)nn23)cc1S(=O)(=O)N[C@H]1CC[C@@H](O)CC1 [Example 18-1] | 50 to 80 |
| COc1ccc(-c2c(C)nc3sc(C(C)(C)O)nn23)cc1S(=O)(=O)C1CN(S(C)(=O)=O)C1 [Example 9-2] | 50 to 80 |
| COc1ccc(-c2c(C)nc3sc(C(C)(C)OC)cn23)cc1S(=O)(=O)Nc1ccc(F)cc1 [Example 1-50] | > 80 |
| COc1ccc(-c2c(C)nc3sc(C(C)(C)OC)cn23)cc1S(=O)(=O)N[C@H]1CC[C@@H](O)CC1 [Example 1-43] | > 80 |
| COc1ccc(-c2c(C)nc3sc(C4CC4)cn23)cc1S(=O)(=O)N[C@H]1CC[C@@H](O)CC1 [Example 1-48] | 50 to 80 |
| COc1ccc(-c2c(C)nc3sc(C(C)(C)OC)nn23)cc1S(=O)(=O)N[C@H]1CC[C@H](O)CC1 [Example 1-28] | > 80 |
| COc1ccc(-c2c(C)nc3sc(C(C)(C)O)nn23)cc1S(=O)(=O)CCC(C)(C)O [Example 2-42] | ≤ 50 |
| COc1ccc(-c2c(C)nc3sc(C(C)(C)O)nn23)cc1S(=O)(=O)Nc1ccc(C#N)cc1 [Example 21-20] | ≤ 50 |
| COc1ccc(-c2c(C)nc3sc(C(C)(C)O)nn23)cc1S(=O)(=O)[C@]1(C)C[C@H](O)C1 [Example 2-75] | ≤ 50 |
| COc1ccc(-c2c(C)nc3sc(C4CC4)nn23)cc1S(=O)(=O)NC(C)(C)CO [Example 1-35] | > 80 |
| COc1ccc(-c2c(C)nc3sc(C(OC)(C(F)(F)F)C(F)(F)F)cn23)cc1S(=O)(=O)N[C@H]1CC[C@@H](O)CC1 [Example 1-12] | > 80 |
| Cc1nc2sc(C(C)(C)O)nn2c1-c1ccc(Cl)c(S(=O)(=O)N[C@H]2CC[C@@H](O)CC2)c1 [Example 1-7] | > 80 |
| COc1ccc(-c2c(C)nc3sc(C(C)(C)O)nn23)cc1S(=O)(=O)Nc1cccnc1 [Example 2-85] | ≤ 50 |

| SMILES | inhibition at 0.1 µM [%] |
| --- | --- |
| COc1ccc(-c2c(C)nc3sc(C(C)(C)O)nn23)cc1S(=O)(=O)CC1(O)CCC1 [Example 2-63] | ≤ 50 |
| Cc1nc2sc(C(C)(C)O)nn2c1-c1ccc(C(F)(F)F)c(S(=O)(=O)NCC2(O)COC2)c1 [Example 2-30] | > 80 |
| Cc1nc2sc(C(C)(C)OC3COC3)cn2c1-c1ccc(Cl)c(S(=O)(=O)N[C@H]2CC[C@@H](O)CC2)c1 [Example 1-8] | 50 to 80 |
| Cc1nc2sc(C(C)(C)O)nn2c1-c1ccc(C(F)(F)F)c(S(=O)(=O)C2(CO)CC2)c1 [Example 4-2] | > 80 |
| Cc1nc2sc(C(C)(C)O)nn2c1-c1ccc(C(F)(F)F)c(S(=O)(=O)NC2(CO)CC2)c1 [Example 2-20] | > 80 |
| Cc1nc2sc(C(C)(C)O)nn2c1-c1ccc(C(F)(F)F)c(S(=O)(=O)C2CN(S(C)(=O)=O)C2)c1 [Example 9-1] | > 80 |
| COc1c(F)cc(-c2c(C)nc3sc(C(C)(C)O)nn23)cc1S(=O)(=O)N[C@H]1CC[C@H](O)CC1 [Example 2-8] | > 80 |
| Cc1nc2sc(C(C)(C)O)nn2c1-c1cccc(S(=O)(=O)CC(C)(C)O)c1 [Example 2-38] | ≤ 50 |
| COc1ccc(-c2c(C)nc3sc(C(C)(C)O)nn23)cc1S(=O)(=O)Cc1ccc(N)cc1 [Example 26] | ≤ 50 |
| Cc1nc2sc(C(C)(C)O)nn2c1-c1ccc(C(F)(F)F)c(S(=O)(=O)[C@H]2C[C@@H](O)C2)c1 [Example 2-46] | > 80 |
| COc1ccc(-c2c(C)nc3sc(C(O)(C4CC4)C4CC4)nn23)cc1S(=O)(=O)C(C)(C)CO [Example 4-5] | > 80 |
| COc1ccc(-c2c(C)nc3sc(C(C)(C)O)nn23)cc1S(=O)(=O)[C@H]1C[C@@H]1C(C)(C)O [Example 2-78] | ≤ 50 |
| Cc1nc2sc(C(C)(C)O)nn2c1-c1ccc(C(F)(F)F)c(S(=O)(=O)NCC(C)(C)O)c1 [Example 2-21] | > 80 |
| Cc1nc2sc(C(C)(C)O)nn2c1-c1ccc(C(F)(F)F)c(S(=O)(=O)[C@H]2C[C@H](O)C2)c1 [Example 2-47] | > 80 |
| Cc1nc2sc(C(C)(C)O)nn2c1-c1ccc(C(F)(F)F)c(S(=O)(=O)N[C@H]2C[C@H](O)C2)c1 [Example 2-16] | > 80 |
| COc1ncc(-c2c(C)nc3sc(C(C)(C)C#N)nn23)cc1S(=O)(=O)N[C@H]1CC[C@@H](O)CC1 [Example 1-18] | 50 to 80 |
| COc1ccc(-c2c(C)nc3sc(C(C)(C)O)nn23)cc1S(=O)(=O)C1CCC(=O)CC1 [Example 13] | ≤ 50 |
| COc1ccc(-c2c(C)nc3sc(C(C)(C)O)nn23)cc1S(=O)(=O)N[C@H]1CC[C@@H](O)CC1 [Example 1-14] | 50 to 80 |
| COc1ccc(-c2c(C)nc3sc(C(C)(C)O)nn23)cc1S(=O)(=O)C[C@H]1CC[C@@H](O)CC1 [Example 1-34] | 50 to 80 |
| COc1ccc(-c2c(C)nc3sc(C(C)(C)O)nn23)cc1S(=O)(=O)[C@@H]1CC[C@@H](O)C1 [Example 2-62] | ≤ 50 |
| Cc1nc2sc(C(C)(C)O)cn2c1-c1ccc(OC(F)(F)F)c(S(=O)(=O)N[C@H]2CC[C@@H](O)CC2)c1 [Example 1-3] | ≤ 50 |
| Cc1nc2sc(C3CC3)nn2c1-c1ccc(C(F)(F)F)c(S(=O)(=O)N[C@H]2CC[C@H](O)CC2)c1 [Example 1-30] | > 80 |
| Cc1nc2sc(C(C)(C)C)nn2c1-c1ccc(C(F)(F)F)c(S(=O)(=O)N[C@H]2CC[C@H](O)CC2)c1 [Example 1-32] | > 80 |
| COc1c(F)cc(-c2c(C)nc3sc(C(C)(C)C)cn23)cc1S(=O)(=O)N[C@H]1CC[C@@H](O)CC1 [Example 2-3] | > 80 |
| COc1ccc(-c2c(C)nc3sc(C4(OC)CC4)cn23)cc1S(=O)(=O)N[C@H]1CC[C@@H](O)CC1 [Example 1-47] | 50 to 80 |
| COc1ccc(-c2c(C)nc3sc(C(C)(C)O)cn23)cc1S(=O)(=O)C[C@H]1CC[C@@H](O)CC1 [Example 1-27] | ≤ 50 |
